How the values were obtained:
Format in all cases: cell-based
E. faecalis (CL 4877) = assay: Zone of inhibition screen, 96 well agar array format; design: scale not given here; conditions: zone of inhibition relative to 1 mg/ml stock solution of p-chlorobiphenylvancomycin
How it was run: (§1)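 Each compound was tested for antibacterial activity against a shared bacterial panel, with screening carried out on agar in a 96-well array.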

S. aureus (ATCC 29213) = assay: as above; design: scale not given here; conditions: zone of inhibition relative to 1 mg/ml stock solution of p-chlorobiphenylvancomycin
How it was run: as §1

E. faecalis ATCC 29212 = assay: MIC determination in BHI media, OD600; conditions: BHI + 0.1% casamino acids, 18 hours at 37° C., ≧90% OD600 inhibition
How it was run: (§2)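 Log-phase bacteria were diluted to about 5×10^5 CFU/ml and exposed to test compounds serially diluted in DMSO. Following 18 hours at 37° C, growth was read by plate absorbance to assign the MIC.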

E. faecium ATCC 49624 = assay: MIC determination in BHI media, OD600; conditions: BHI + 0.1% casamino acids, 18 hours at 37° C., ≧90% OD600 inhibition
How it was run: as §2

S aureus ATCC 29213 = assay: MIC determination in BHI media, OD600; conditions: BHI + 0.1% casamino acids, 18 hours at 37° C., ≧90% OD600 inhibition
How it was run: as §2

S. Aureus ATCC 33591 = assay: MIC determination in BHI media, OD600; conditions: BHI + 0.1% casamino acids, 18 hours at 37° C., ≧90% OD600 inhibition
How it was run: as §2

| SMILES | zone score, E. faecalis CL 4877 (E. faecalis (CL 4877)) | zone score, S. aureus ATCC 29213 (S. aureus (ATCC 29213)) | MIC E. faecalis ATCC 29212 (E. faecalis ATCC 29212) | MIC E. faecium ATCC 49624 (E. faecium ATCC 49624) | MIC S. aureus ATCC 29213 (S aureus ATCC 29213) | MIC S. aureus ATCC 33591 (S. Aureus ATCC 33591) |
| --- | --- | --- | --- | --- | --- | --- |
| C[C@H]1O[C@H](O[C@H]2[C@H](Oc3c4cc5cc3Oc3ccc(cc3Cl)[C@@H](O)[C@@H](NC(=O)[C@@H](N)Cc3ccccc3)C(=O)N[C@@H](CC(N)=O)C(=O)N[C@H]5C(=O)N[C@H]3C(=O)N[C@H](C(=O)N[C@@H](C(=O)O)c5cc(O)cc(O)c5-c5cc3ccc5O)[C@H](O)c3ccc(c(Cl)c3)O4)O[C@H](CO)[C@@H](O)[C@@H]2O)C[C@@](C)(NCc2ccc(-c3ccc(Cl)cc3)cc2)[C@H]1O [Compound 7] | 2 | 2 | 0.78 µg/mL | 0.12 µg/mL | 0.39 µg/mL | 0.39 µg/mL |
| CSCC[C@@H](N)C(=O)N[C@H]1C(=O)N[C@@H](CC(N)=O)C(=O)N[C@H]2C(=O)N[C@H]3C(=O)N[C@H](C(=O)N[C@@H](C(=O)O)c4cc(O)cc(O)c4-c4cc3ccc4O)[C@H](O)c3ccc(c(Cl)c3)Oc3cc2cc(c3O[C@@H]2O[C@H](CO)[C@@H](O)[C@H](O)[C@H]2O[C@@H]2C[C@@](C)(NCc3ccc(-c4ccc(Cl)cc4)cc3)[C@@H](O)[C@@H](C)O2)Oc2ccc(cc2Cl)[C@H]1O [Compound 15] | 2 |  | 0.25 µg/mL | 0.12 µg/mL | 0.25 µg/mL | 0.12 µg/mL |
| C[C@H]1O[C@H](O[C@H]2[C@H](Oc3c4cc5cc3Oc3ccc(cc3Cl)[C@@H](O)[C@@H](NC(=O)[C@H](N)Cc3ccccc3)C(=O)N[C@@H](CC(N)=O)C(=O)N[C@H]5C(=O)N[C@H]3C(=O)N[C@H](C(=O)N[C@@H](C(=O)O)c5cc(O)cc(O)c5-c5cc3ccc5O)[C@H](O)c3ccc(c(Cl)c3)O4)O[C@H](CO)[C@@H](O)[C@@H]2O)C[C@@](C)(NCc2ccc(-c3ccc(Cl)cc3)cc2)[C@H]1O [Compound 16] |  |  | 0.25 µg/mL | 0.12 µg/mL | 0.25 µg/mL | 0.25 µg/mL |
| CCC(C)C(N)C(=O)NC1C(=O)NC(CC(N)=O)C(=O)NC2C(=O)NC3C(=O)NC(C(=O)NC(C(=O)O)c4cc(O)cc(O)c4-c4cc3ccc4O)C(O)c3ccc(c(Cl)c3)Oc3cc2cc(c3OC2OC(CO)C(O)C(O)C2OC2CC(C)(NCc3ccc(-c4ccc(Cl)cc4)cc3)C(O)C(C)O2)Oc2ccc(cc2Cl)C1O (centres unmarked) [Compound 37] |  |  | 0.78 µg/mL | 0.25 µg/mL | 0.39 µg/mL | 0.39 µg/mL |
| CC1OC(OC2C(Oc3c4cc5cc3Oc3ccc(cc3Cl)C(O)C3NC(=O)C(NC(=O)C5NC(=O)C(CC(N)=O)NC(=O)C(NC(=O)C5CNC(=O)N5)C(O)c5ccc(c(Cl)c5)O4)c4ccc(O)c(c4)-c4c(O)cc(O)cc4C(C(=O)O)NC3=O)OC(CO)C(O)C2O)CC(C)(NCc2ccc(-c3ccc(Cl)cc3)cc2)C1O (centres unmarked) [Compound 56-3] |  |  | 0.25 µg/mL | 0.12 µg/mL | 0.25 µg/mL | 0.25 µg/mL |
| CC1OC(OC2C(Oc3c4cc5cc3Oc3ccc(cc3Cl)C(O)C3NC(=O)C(NC(=O)C5NC(=O)C(CC(N)=O)NC(=O)C(NC(=O)C(N)CCCCNC(N)=O)C(O)c5ccc(c(Cl)c5)O4)c4ccc(O)c(c4)-c4c(O)cc(O)cc4C(C(=O)O)NC3=O)OC(CO)C(O)C2O)CC(C)(NCc2ccc(-c3ccc(Cl)cc3)cc2)C1O (centres unmarked) [Compound 61] |  |  | 0.25 µg/mL | 0.12 µg/mL | 0.12 µg/mL | 0.12 µg/mL |
| CC1OC(OC2C(Oc3c4cc5cc3Oc3ccc(cc3Cl)C(O)C3NC(=O)C(NC(=O)C5NC(=O)C(CC(N)=O)NC(=O)C(NC(=O)C(N)CCCNC(N)=O)C(O)c5ccc(c(Cl)c5)O4)c4ccc(O)c(c4)-c4c(O)cc(O)cc4C(C(=O)O)NC3=O)OC(CO)C(O)C2O)CC(C)(NCc2ccc(-c3ccc(Cl)cc3)cc2)C1O (centres unmarked) [Compound 62] |  |  | 0.25 µg/mL | 0.12 µg/mL | 0.25 µg/mL | 0.25 µg/mL |
| CCOC(=O)NC(CC(N)=O)C(=O)NC1C(=O)NC(CC(N)=O)C(=O)NC2C(=O)NC3C(=O)NC(C(=O)NC(C(=O)O)c4cc(O)cc(O)c4-c4cc3ccc4O)C(O)c3ccc(c(Cl)c3)Oc3cc2cc(c3OC2OC(CO)C(O)C(O)C2OC2CC(C)(NCc3ccc(-c4ccc(Cl)cc4)cc3)C(O)C(C)O2)Oc2ccc(cc2Cl)C1O (centres unmarked) [Compound 188] | 2 | 2 | 0.39 µg/mL | 0.062 µg/mL | 0.39 µg/mL | 0.39 µg/mL |
| CNC(C(=O)NC1C(=O)NC(CC(N)=O)C(=O)NC2C(=O)NC3C(=O)NC(C(=O)NC(C(=O)O)c4cc(O)cc(O)c4-c4cc3ccc4O)C(O)c3ccc(c(Cl)c3)Oc3cc2cc(c3OC2OC(CO)C(O)C(O)C2OC2CC(C)(NCc3ccc(-c4ccc(Cl)cc4)cc3)C(O)C(C)O2)Oc2ccc(cc2Cl)C1O)C(C)C (centres unmarked) [Compound 328] |  |  | 0.39 µg/mL | 0.12 µg/mL | 0.25 µg/mL | 0.25 µg/mL |
| CNC(CC(C)C)C(=O)NC1C(=O)NC(CC(N)=O)C(=O)NC2C(=O)NC3C(=O)NC(C(=O)NC(C(=O)O)c4cc(O)cc(O)c4-c4cc3ccc4O)C(O)c3ccc(c(Cl)c3)Oc3cc2cc(c3OC2OC(CO)C(O)C(O)C2OC2CC(C)(NCc3ccc(-c4ccc(Cl)cc4)cc3)C(O)C(C)O2)Oc2ccc(cc2Cl)C1O (centres unmarked) [Compound 329] |  |  | 0.12 µg/mL | 0.031 µg/mL | 0.25 µg/mL | 0.12 µg/mL |
| CCC(C)C(NC)C(=O)NC1C(=O)NC(CC(N)=O)C(=O)NC2C(=O)NC3C(=O)NC(C(=O)NC(C(=O)O)c4cc(O)cc(O)c4-c4cc3ccc4O)C(O)c3ccc(c(Cl)c3)Oc3cc2cc(c3OC2OC(CO)C(O)C(O)C2OC2CC(C)(NCc3ccc(-c4ccc(Cl)cc4)cc3)C(O)C(C)O2)Oc2ccc(cc2Cl)C1O (centres unmarked) [Compound 330] |  |  | 0.78 µg/mL | 0.12 µg/mL | 0.25 µg/mL | 0.25 µg/mL |
| CC(C)CC(N)C(=O)NC1C(=O)NC(CC(N)=O)C(=O)NC2C(=O)NC3C(=O)NC(C(=O)NC(C(=O)O)c4cc(O)cc(O)c4-c4cc3ccc4O)C(O)c3ccc(c(Cl)c3)Oc3cc2cc(c3OC2OC(CO)C(O)C(O)C2OC2CC(C)(NCc3ccc(-c4ccc(Cl)cc4)cc3)C(O)C(C)O2)Oc2ccc(cc2Cl)C1O (centres unmarked) [Compound 336] |  |  | 0.25 µg/mL | 0.12 µg/mL | 0.25 µg/mL | 0.25 µg/mL |
| CCCC(N)C(=O)NC1C(=O)NC(CC(N)=O)C(=O)NC2C(=O)NC3C(=O)NC(C(=O)NC(C(=O)O)c4cc(O)cc(O)c4-c4cc3ccc4O)C(O)c3ccc(c(Cl)c3)Oc3cc2cc(c3OC2OC(CO)C(O)C(O)C2OC2CC(C)(NCc3ccc(-c4ccc(Cl)cc4)cc3)C(O)C(C)O2)Oc2ccc(cc2Cl)C1O (centres unmarked) [Compound 337] |  |  | 0.25 µg/mL | 0.062 µg/mL | 0.12 µg/mL | 0.12 µg/mL |
| CC(C)C(N)C(=O)NC1C(=O)NC(CC(N)=O)C(=O)NC2C(=O)NC3C(=O)NC(C(=O)NC(C(=O)O)c4cc(O)cc(O)c4-c4cc3ccc4O)C(O)c3ccc(c(Cl)c3)Oc3cc2cc(c3OC2OC(CO)C(O)C(O)C2OC2CC(C)(NCc3ccc(-c4ccc(Cl)cc4)cc3)C(O)C(C)O2)Oc2ccc(cc2Cl)C1O (centres unmarked) [Compound 339] |  |  | 0.25 µg/mL | 0.12 µg/mL | 0.25 µg/mL | 0.25 µg/mL |
| CNC(CC(C)C)C(=O)NC1C(=O)NC(CC(N)=O)C(=O)NC2C(=O)NC3C(=O)NC(C(=O)NC(C(=O)O)c4cc(O)cc(O)c4-c4cc3ccc4O)C(O)c3ccc(c(Cl)c3)Oc3cc2cc(c3OC2OC(CO)C(O)C(O)C2OC2CC(C)(NCc3ccc(-c4ccc(Cl)cc4)cc3)C(O)C(C)O2)Oc2ccc(cc2Cl)C1O (centres unmarked) [Compound 517, Cl-Biphenyl Vancomycin, reference compound] |  |  | 0.25 µg/mL | 0.062 µg/mL | 0.25 µg/mL | 0.25 µg/mL |
| CNC(CC(C)C)C(=O)NC1C(=O)NC(CC(N)=O)C(=O)NC2C(=O)NC3C(=O)NC(C(=O)NC(C(=O)O)c4cc(O)cc(O)c4-c4cc3ccc4O)C(O)c3ccc(c(Cl)c3)Oc3cc2cc(c3OC2OC(CI)C(O)C(O)C2OC2CC(C)(NCc3ccc(-c4ccc(Cl)cc4)cc3)C(O)C(C)O2)Oc2ccc(cc2Cl)C1O (centres unmarked) [Compound 520] |  |  | 0.78 µg/mL | 0.12 µg/mL | 0.78 µg/mL | 0.78 µg/mL |
| CC1OC(OC2C(Oc3c4cc5cc3Oc3ccc(cc3Cl)C(O)C3NC(=O)C(NC(=O)C5NC(=O)C(CC(N)=O)NC(=O)C(NC(=O)C(N)COC(C)(C)C)C(O)c5ccc(c(Cl)c5)O4)c4ccc(O)c(c4)-c4c(O)cc(O)cc4C(C(=O)O)NC3=O)OC(CN)C(O)C2O)CC(C)(NCc2ccc(-c3ccc(Cl)cc3)cc2)C1O (centres unmarked) [Compound 521] |  |  | 0.78 µg/mL | 0.12 µg/mL | 0.78 µg/mL | 0.78 µg/mL |
| CNC(CC(C)C)C(=O)NC1C(=O)NC(CC(N)=O)C(=O)NC2C(=O)NC3C(=O)NC(C(=O)NC(C(=O)O)c4cc(O)cc(O)c4-c4cc3ccc4O)C(O)c3ccc(c(Cl)c3)Oc3cc2cc(c3OC2OC(CN)C(O)C(O)C2OC2CC(C)(NCc3ccc(-c4ccc(Cl)cc4)cc3)C(O)C(C)O2)Oc2ccc(cc2Cl)C1O (centres unmarked) [Compound 523] |  |  | 0.25 µg/mL | 0.12 µg/mL | 0.78 µg/mL | 0.39 µg/mL |

From patent publication US6518243B1, “Desleucyl glycopeptide antibiotics and methods of making same” (Trustees of Princeton University, priority 1999, dated 2003)
